Data as given in paper PMC6813295, “A tumour-selective cascade activatable self-detained system for drug delivery and cancer imaging” (Nature Communications, 2019).
Where a SMILES comes first, the peptide text is derived from it. The star is where a group is joined. X1 = CC1(C)C(=CC=C2CCCC(C=CC3=[N+](CCCCCC(=O)O)c4ccccc4C3(C)C)=C2*)N(CCCCCC(=O)O)c2ccccc21

Experiments:
H460 cells = type: cell-based, human; settings: confocal
Experimental: Fig. 3 Recognition and self-assembly of molecule 1 in cells. a Western blots of XIAP expression in H460 and 293T cells. b Confocal images of H460 cells treated with or without energy-dependent inhibitor (oligomycin A, 20 μM) for 1 h, and followed by washing with PBS and treated with the molecule 1 (50 μM) for 1 h. c Statistical analysis of average fluorescence intensities in the cytoplasm of H460 cells from confocal images. Data are presented as the mean ± s.d. (n = 100). ***p < 0.001, p values were performed with one-way ANOVA followed by post hoc Tukey’s test for the indicated comparison. d Confocal images of time-dependent monitoring of H460 and 293T cells treated with the molecule 1 (50 μM) for 1 h followed by washing with PBS and replacing the medium and a further incubation up to 48 h. e Statistical analysis of average fluorescence intensities in the cytoplasm of H460 and 293T cells from confocal images with a timescale range of 1–48 h. Data are presented as the mean ± s.d. […] Finally, incubate up to 6 h and imaging by confocal microscope. g Schematic diagram illustrates the process of NBD fluorescence illumination. h Confocal images of H460 cells treatment with molecule 1-NBD (50 μM) for 1 h. i TEM images of ultrathin section of H460 cells treated with molecule I-1 (50 μM) and without the molecule I-1 for up to 12 h. […]

H460 tumour-bearing mice = test: Tumour penetration, distance from CD31-stained vessels in frozen tumour sections; type: in vivo, mouse
Experimental: Fig. 5 Tumour penetrations of TCASS. a 3D reconstruction PA images of tumour-bearing mice injected with molecule 1, SiO2 nanoparticles (SiO2 NPs) and liposome labelled by Cy. The degrees of penetration into the tumour were calculated. To better illustrate the penetration extent of molecule 1, SiO2 nanoparticles (SiO2 NPs) and liposome labelled by Cy, the tumour tissue was divided into five parts with identical radius intervals, which indicated the trend from the tumour edge to the interior (the red dashed circles show the tumour margin, and the grey dashed circles show the normalized distance from the tumour edge). b Quantification of the PA signal intensity. The PA intensity in the intratumoural distribution area between neighbouring polygons was normalized by the corresponding area. Data are presented as the mean ± s.d. (n = 3). ***p < 0.001, p values were performed with one-way ANOVA followed by post hoc Tukey’s test for the indicated comparison. c Frozen sections of tumour removed after treatment with molecule 1, SiO2 NPs and liposome labelled by Cy for 12 h. The tumour cell nucleus and vessels were stained with DAPI and FITC-tagged CD31 antibody, respectively. d Quantification of the penetrative distance of molecule 1, SiO2 NPs and liposome labelled by Cy from the tumour vessels. Data are presented as the mean ± s.d. (n = 8). ***p < 0.001, p values were performed with one-way ANOVA followed by post hoc Tukey’s test for the indicated comparison. Scale bar: a 2 mm; c 50 μm
All animal experiments were performed as previously described. H460 cells were also subcutaneously implanted on the right flank of xenografts mice. After the tumour had developed, Molecule 1 (14 mg/kg, n = 3), liposome and SiO2 nanoparticles labelled by Cy (the same molar amount of Cy, n = 3) dissolved into PBS was intravenously injected through tail vein of mice. The control group was PBS at the same conditions. […] In order to quantify the PA signal intensity, the intratumoral distribution area was normalized with the tumour regions.

CC[C@H](C)[C@H](NC(=O)[C@@H]1CCCN1C(=O)[C@@H](NC(=O)[C@H](C)N)C(C)C)C(=O)N[C@@H](C)C(=O)N[C@@H](CCC(N)=O)C(=O)N[C@@H](CCCCN)C(=O)N[C@@H](CC(=O)O)C(=O)N[C@@H](CCC(=O)O)C(=O)N[C@H](C(=O)N[C@@H](CC(=O)O)C(=O)N[C@@H](CCCCN)C(=O)N[C@@H](CC(C)C)C(=O)N[C@H](C(=O)N[C@@H](Cc1ccccc1)C(=O)N[C@@H](Cc1ccccc1)C(=O)N[C@@H](C)C(=O)N[C@@H](CCC(=O)O)C(=O)N[C@@H](CSC1=C(C=CC2=[N+](CCCCCC(=O)O)c3ccccc3C2(C)C)CCCC1=CC=C1N(CCCCCC(=O)O)c2ccccc2C1(C)C)C(=O)NCC(=O)O)C(C)C)C(C)C [molecule 1] (H-AVPIAQKDEVDKLVFFAEC(X1)G-OH)
uptake pathway into cells (H460 cells; H460, filipin III 5 μg/ml, chlorpromazine 10 μg/ml, amiloride 10 μM, 1 h, 50 μM 2 h, 37 °C): caveolin-mediated endocytic pathway
internalization into cells, energy dependence (H460 cells; H460, oligomycin A 20 μM 1 h, then 50 μM 1 h, n = 100): energy-dependent
penetrative distance of signal from the tumour blood vessels (H460 tumour-bearing mice; 12 h post IV injection, 14 mg/kg or same molar amount of Cy, frozen sections, mean ± s.d. n = 8): approximately 67.4 ± 10.3 μm
penetration distance of molecule 1 relative to SiO2 nanoparticles (H460 tumour-bearing mice; 12 h post injection): ~10 times
penetration distance of molecule 1 relative to liposomes (H460 tumour-bearing mice; 12 h post injection): approximately 13 times
